Assay results reported in publication PMC11241262, “Unravelling the Antifibrinolytic Mechanism of Action of the 1,2,3-Triazole Derivatives” (International Journal of Molecular Sciences, 2024).

Assays:
[1] = tested on: whole blood clots; experiment: Whole blood dosage (effective antifibrinolytic dosage, tPA-triggered clot lysis); parameters: species or system human; settings: 10 µg/mL tPA, 37 °C
Method: (§1) Blood was obtained by venipuncture from healthy donors after they signed an informed consent form. Blood was transferred into vacuum non-anticoagulant Vacutainer® tubes (BD, Franklin Lakes, NJ, USA). Blood samples were immediately used for the assay after extraction.
Glass tubes were prepared with 20 µL of a mixture of tPA, in a final concentration of 10 µg/mL, and the evaluated compounds, in a final concentration of 10, 20, 40, or 60 µM in Tris HCl buffer. A control clot was obtained with 20 µL of tPA with no compound. Then, 800 µL of blood was transferred to each tube and tubes were monitored for clot formation and lysis. The assay was performed with casual shaking. […] The ex vivo effective dosage for each compound was determined by their ability to inhibit complete clot degradation. Photographs were taken after 24 h of incubation.

[2] = mostly cardiac surgery patients; ref [21],[29],[36],[37],[38]; cited from earlier work
[3] = target: T1, plasmin (Homo sapiens, UniProt P00747); experiment: Plasmin activity assay (Plasmin Inhibitor Screening Assay Kit); format: biochemical; settings: for inhibition at 500 µM: 0.5 mM; for inhibition at 5000 µM: 5 mM; for inhibition at 10000 µM: 10 mM; for inhibition at 15000 µM: 15 mM; for inhibition at 20000 µM: 20 mM; for inhibition at 30000 µM: 30 mM; for increase of IC50 of plasmin's catalytic domain compared to IC50 in plasma clot lysis assay: plasma clot lysis IC50 from Bosch-Sanz et al. [43]
T1 construct: purchased abcam
T1 sequence (P00747 97-580 limits assumed): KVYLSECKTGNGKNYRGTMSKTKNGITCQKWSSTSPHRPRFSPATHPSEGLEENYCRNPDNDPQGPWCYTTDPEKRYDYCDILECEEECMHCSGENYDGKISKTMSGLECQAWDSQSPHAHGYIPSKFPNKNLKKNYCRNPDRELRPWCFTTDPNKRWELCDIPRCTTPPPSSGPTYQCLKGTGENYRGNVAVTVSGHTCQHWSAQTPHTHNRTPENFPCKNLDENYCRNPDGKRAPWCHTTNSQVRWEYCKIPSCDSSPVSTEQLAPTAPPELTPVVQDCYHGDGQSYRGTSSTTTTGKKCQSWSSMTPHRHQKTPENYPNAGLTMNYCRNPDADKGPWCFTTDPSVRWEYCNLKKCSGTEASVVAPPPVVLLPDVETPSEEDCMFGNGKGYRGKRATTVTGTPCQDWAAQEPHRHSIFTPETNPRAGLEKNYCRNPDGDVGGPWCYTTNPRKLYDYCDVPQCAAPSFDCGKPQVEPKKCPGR
T1 sequence (P00747 581-810 limits assumed): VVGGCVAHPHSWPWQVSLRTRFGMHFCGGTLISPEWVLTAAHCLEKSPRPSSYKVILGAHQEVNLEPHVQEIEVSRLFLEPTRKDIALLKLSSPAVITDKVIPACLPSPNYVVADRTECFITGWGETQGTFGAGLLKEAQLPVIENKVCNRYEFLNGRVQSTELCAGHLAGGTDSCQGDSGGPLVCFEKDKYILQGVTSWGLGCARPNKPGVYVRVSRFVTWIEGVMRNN
Method: The potential activity of the studied compounds on the catalytic domain of plasmin was evaluated using the Plasmin Inhibitor Screening Assay Kit (abcam), following the manufacturer’s instructions. Briefly, the assay measures the inhibition of plasmin’s activity by the tested compounds through the cleavage of a fluorogenic peptide substrate. The assay was performed in flat-bottom 96-well plates. Plasmin was pre-incubated with different concentrations of the tested compounds for 10 min at RT prior to the addition of the peptide substrate. Plasmin’s activity was then measured by monitoring the increase in fluorescence intensity over time using a microplate reader (Infinite M Plex, Tecan, Männedorf, Switzerland) at an Ex/Em of 360/450 nm, every minute at 37 °C for 10 min. The slope of each sample was determined using the initial and final fluorescence values and their respective time points. (1) Fluorescence slope=RFU2−RFU1/t2−t1
The Relative Plasmin Inhibition was calculated according to the manufacturer’s instructions using a control slope with no compound (enzyme control):(2) Relative Plasmin Inhibition%=SlopeControl−SlopeCompound/SlopeControl×100

[4] = target: T2, tissue-type plasminogen activator (tPA) (Homo sapiens, UniProt P00750); experiment: tPA activity assay (chromogenic substrate); format: biochemical; settings: for activity on tPA's active site: at the tested concentrations
T2 construct: purchased abcam
T2 sequence (P00750 36-562): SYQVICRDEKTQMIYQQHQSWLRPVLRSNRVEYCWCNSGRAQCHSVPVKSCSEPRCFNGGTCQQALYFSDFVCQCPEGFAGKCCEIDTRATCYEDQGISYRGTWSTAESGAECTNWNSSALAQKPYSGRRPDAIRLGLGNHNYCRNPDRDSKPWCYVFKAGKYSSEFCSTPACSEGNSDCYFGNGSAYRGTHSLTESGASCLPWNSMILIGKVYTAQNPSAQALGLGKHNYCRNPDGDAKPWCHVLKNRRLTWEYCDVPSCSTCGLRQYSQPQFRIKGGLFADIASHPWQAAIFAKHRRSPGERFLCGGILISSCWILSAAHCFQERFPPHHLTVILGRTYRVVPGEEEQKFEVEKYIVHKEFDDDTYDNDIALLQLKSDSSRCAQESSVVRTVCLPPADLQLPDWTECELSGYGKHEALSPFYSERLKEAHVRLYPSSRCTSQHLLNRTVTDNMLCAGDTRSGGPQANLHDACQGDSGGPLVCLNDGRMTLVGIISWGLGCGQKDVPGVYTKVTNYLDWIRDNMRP
Method: Tris hydrochloride, 1M, pH = 7.5 solution (Thermo Fisher Scientific, Waltham, MA, USA) was used as buffer. […] Recombinant human Tissue Plasminogen Activator (abcam, Cambridge, UK) served as the source of tPA, and was stored at −20 °C until used.
The assay measures the inhibition of tPA’s catalytic domain by the tested compounds employing a chromogenic substrate. Different concentrations of the studied molecules were incubated with tPA in a 96-well plate at 37 °C for 10 min. […] After, 20 μL of tPA’s substrate was added to each well. […] The slope for each assay was obtained from the initial and final absorbance values and their respective time points, or until complete substrate cleavage was achieved. (3) Absorbance slope=Abs2−Abs1/t2−t1
The Relative tPA Inhibition for each condition was calculated using Equation (2). Then, the Relative tPA Activity (%) was calculated by subtracting the relative tPA inhibition of each concentration from the total activity of the enzyme, obtained from a control without a compound.

[5] = tested on: whole blood clot formation; experiment: Whole blood coagulation assay (clot formation, no exogenous tPA); parameters: species or system human; settings: 40 µM, 37 °C, fibrinolysis not triggered
Method: as §1
Prior to blood addition, 20 µL of the evaluated compounds was added to glass tubes, in a final concentration of 40 µM. As a control clot, 20 µL of Tris HCl buffer with no compound was used. Next, 800 µL of blood was transferred to each tube followed by casual shaking to ensure proper mixing. Tubes were incubated at 37 °C for 30 min to allow clot formation and posterior lysis. Blood clotting and lysis were visually monitored and photographs were taken after 30 min.

[6] = target: T3, plasminogen (Homo sapiens, UniProt P00747); experiment: Plasminogen activation assay (conversion of plasminogen into plasmin by tPA in the absence of fibrin); format: biochemical; settings: for concentration at which compound increased tPA's activity by 50%: plasminogen-tPA isolated system, absence of fibrin
T3 construct: purchased abcam
T3 sequence (P00747 20-810 limits assumed): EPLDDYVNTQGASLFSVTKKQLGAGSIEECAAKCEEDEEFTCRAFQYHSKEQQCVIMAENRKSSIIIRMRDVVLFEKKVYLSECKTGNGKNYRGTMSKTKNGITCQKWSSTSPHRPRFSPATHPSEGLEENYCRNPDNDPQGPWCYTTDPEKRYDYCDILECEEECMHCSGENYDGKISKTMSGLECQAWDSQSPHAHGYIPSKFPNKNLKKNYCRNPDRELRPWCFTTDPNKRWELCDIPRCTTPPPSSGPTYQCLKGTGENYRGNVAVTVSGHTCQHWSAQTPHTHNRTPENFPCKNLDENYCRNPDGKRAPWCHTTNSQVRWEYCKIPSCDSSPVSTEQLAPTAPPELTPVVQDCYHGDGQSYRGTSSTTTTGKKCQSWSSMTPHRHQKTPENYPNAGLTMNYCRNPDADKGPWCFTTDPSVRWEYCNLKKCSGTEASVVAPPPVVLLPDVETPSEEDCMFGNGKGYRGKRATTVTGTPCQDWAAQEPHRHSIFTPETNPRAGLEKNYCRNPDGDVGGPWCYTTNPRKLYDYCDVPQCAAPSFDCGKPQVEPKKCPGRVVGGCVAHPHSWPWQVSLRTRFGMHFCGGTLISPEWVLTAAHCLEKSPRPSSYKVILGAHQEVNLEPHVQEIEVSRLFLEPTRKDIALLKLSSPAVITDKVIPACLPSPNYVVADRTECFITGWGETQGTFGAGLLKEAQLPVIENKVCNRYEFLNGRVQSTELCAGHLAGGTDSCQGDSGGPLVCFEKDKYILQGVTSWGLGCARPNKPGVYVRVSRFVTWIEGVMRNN
Method: The conversion rate of plasminogen to plasmin was assessed using the Tissue-Type Plasminogen Activator Activity Assay Kit (abcam), following the manufacturer’s instructions. The assay measures the ability of tPA to activate plasminogen to plasmin in the presence of the tested compounds using a chromogenic substrate.
A solution of plasminogen and plasmin substrate was mixed with a previously prepared solution of the studied compound and tPA in Tris HCl buffer in a 96-well plate. The final concentration of tPA in each well was 6.8 µg/mL, in a final volume of 100 µL. Absorbance was measured on a microplate reader at a wavelength of 405 nm every minute at 37 °C for 2 h or until the system reached saturation. The absorbance slope of each sample was determined using Equation (3). The Relative Plasminogen Activation (%) for each condition was calculated with Equation (4), using a control without a compound (enzyme control). (4) Relative Plasminogen Activation (%)=SlopeCompound−SlopeControl/SlopeControl×100
Values were fitted to a linear model using MATLAB R2023a (The Math Works Inc., Natick, MA, USA). Concentrations at which each compound was able to increase plasminogen’s conversion by 50% in comparison to the enzyme control were extracted and compared for the three molecules.

[7] = ref [28],[29],[35]; cited from earlier work
[8] = tested on: whole blood clots; experiment: Whole blood clot lysis assay (D-dimer ELISA); parameters: species or system human; settings: 20 µM, 10 µg/mL tPA
Method: as §1
The quantification of D-dimer released during clot lysis was performed using the human D-dimer ELISA kit (Thermo Fisher Scientific). Directly after extraction, 500 µL of blood was transferred to four different glass tubes and allowed to clot for 10 min at 37 °C. Tubes were incubated at 37 °C for an additional 1 h to enable clot retraction from the walls of the glass tubes [53]. Then, 100 µL of a mixture of tPA and the studied compounds was added on top of each clot. […] As a control clot, 100 µL of tPA without compound in Tris HCl buffer was added. Tubes were incubated at 37 °C and, at time points of 5 min, 2, 4, 7, and 24 h, samples of each tube were extracted for D-dimer quantification. After gentle shaking of the tubes, 5 µL of the supernatant from each tube was pipetted into Eppendorf tubes and stored at −20 °C until assayed. The ELISA assay was performed as described by the manufacturer’s instructions and absorbance was read in a microplate reader at the wavelengths of 450 nm and 550 nm. […]

[9] = read-out: percentage of plasmin's inhibition

SMILES | effective dosage (concentration preventing complete clot degradation after 24 h) [1] | inhibition at 500 µM [3, 9] | inhibition at 5000 µM [3, 9] | inhibition at 10000 µM [3, 9] | inhibition at 15000 µM [3, 9] | inhibition at 20000 µM [3, 9] | inhibition at 30000 µM [3, 9] | increase of IC50 of plasmin's catalytic domain compared to IC50 in plasma clot lysis assay [3] | percentage of tPA's activity ([4]; 0.5 mM) | percentage of tPA's activity ([4]; 1 mM) | percentage of tPA's activity ([4]; 5 mM) | percentage of tPA's activity ([4]; 10 mM) | percentage of tPA's activity ([4]; 15 mM) | activity on tPA's active site [4] | effect on clot formation [5] | concentration at which compound increased tPA's activity by 50% [6] | further results
NC[C@H]1CC[C@H](C(=O)O)CC1 [TXA, tranexamic acid, reference compound] | 60 µM | 2.61% | 12.3% | 22.4% | 28% | 29.1% | 53.1% | 1000 fold | 92.08% | 89.90% | 87.18% | 87.33% | 84.84% | no activity | do not have any effect | 283.01 µM | increased incidence of postoperative seizures [2]: 7 fold; inhibition at 50000 µM ([3]; 50 mM, read-out: percentage of plasmin's inhibition): 59.2%; cerebrospinal fluid concentration as share of plasma concentration [7]: approximately 10%
O=c1[nH]c(-c2cn(C3CCNCC3)nn2)no1 [compound 1] | 10 µM | 0.56% | 4.3% | 7.36% | 11.6% | 48% | 76.6% | 1000 fold | 96.53% | 94.21% | 96.95% | 91.20% | 101.89% | no activity | do not have any effect | 4.67 µM | improvement in antifibrinolytic activity over TXA (D-dimer quantification) ([8]; whole blood): more than 2 fold; D-dimer release lower than for compound 5 ([8]; timepoint 24 h): around 35%; IC50 ([3]; inhibition of plasmin's cleavage of a synthetic substrate by 50%): 20.6 ± 0.78 mM; potency relative to TXA in catalyzing plasminogen's activation by tPA ([6]; from concentration enhancing tPA's activity by 50%): more than 50 times
